On the set-up of data set [1]: method as in PMID 18512987, PMID 19661306. The note with it: previously reported; cited from earlier work.
Data set [2] deals with ICR mice. The data set is described as follows: Acute toxicity (LD50) in ICR mice. The conditions noted are these: mortality within 14 days. The class given is in vivo. As for the experimental part:
(§1) The acute toxicity of the compounds was evaluated using six Imprinting Control Region (ICR) mice per groups at 8 to 12 weeks of age, with an average body weight of 25.6 g. The animals were assigned equally into 4 groups labeled as vehicle (dH2O), high dose (20 g/kg), medium dose (10 g/kg) and low dose (5 g/kg) of the compounds. Prior to administration, the animals were fasted (food but not water) overnight and for 3 to 4 h after compounds administration to eliminate any food inside the gastrointestinal tract that might complicate absorption of the test substance. […] Animals were euthanized by CO2 asphyxiation on 15th day, and serum biochemical and histological (liver and kidney) parameters were determined following the standard method. The mortality of the mice were recorded within 14 days and used to calculate the LD50 for each compound. The mice used were housed in specific pathogen free facility at the University of Malaya. This work was designed to minimize animal suffering and number of animals used, and has been approved by the Faculty of Medicine Animal Care and Use Committee (FOMIACUC, Approval No: 2014-05-07/PHAR/R/CYL) at University of Malaya. The work was reported according to ARRIVE guideline.

Data set [3] in a line: Acute toxicity (LD50) in ICR mice. The data set is classed as in vivo. The note with it: mouse, in vivo, oral, mortality within 14 days. As to the method: as §1
The nature of data set [4]: ORAC antioxidant activity assay. As to the method:
Chemicals. Fluorescein sodium salt, AAPH (2,2′-Azobis(2-methylpropionamidine) dihydrochloride), quercetin dehydrate and trolox ((±)-6-Hydroxy-2,5,7,8-tetramethylchromane-2-carboxylic acid) were purchased from Sigma-Aldrich.
ORAC assay. ORAC (oxygen radical […]) assay was done based on procedures described previously with slight modifications. Compounds were diluted to a final concentration of 100μg/mL, with total reaction volume of 200μL. The assay was performed in a 96-well black microplate, with 25μL of samples, standard (trolox), blank (solvent/PBS) or positive control (quercetin). Subsequently, 150μL of working fluorescein solution was added to each well of assay plate. The plate was incubated at 37°C for at least 5 min. 25μL of AAPH working solution was then added to the wells, making up a total volume of 200μL. Fluorescence was recorded with excitation wavelength of 485nm and emission wavelength of 538nm. […] The values were expressed as trolox equivalent (TE).

The subject of data set [5] is human prostate cancer cell line (PC3). As to the kind of experiment: MTT cell viability assay, PC3. The data set is classed as cell-based. The note with it: PC3, 48 h treatment. From the text:
(§2) Human prostate cancer cell line (PC3), human malignant melanoma cell line (A375), human liver hepatocellular cell line (HepG2) and human colon adenocarcinoma cell line (HT29) were purchased from American Type Culture Collection (ATCC, Manassas, VA). The human breast cancer cell line (MCF-7) was acquired from Cell Lines Service (300273; Eppelheim, Germany), human oral keratinocyte cell line (OKF6) cells and carcinoma-derived human oral keratinocyte cells (H413) (Sigma-aldrich, Saint Louis, MO) were received from Professor Ian Charles Paterson. MCF-7, A375, HT29 and HepG2 cells were grown in Dulbecco’s Modified Eagle Medium (DMEM, Life Technologies, Inc., Rockville, MD) supplemented with 10% heat-inactivated fetal bovine serum (FBS, Sigma-Aldrich, St. Louis, MO), 1% penicillin and streptomycin. PC3 cells were grown in Roswell Park Memorial Institute medium (RPMI) supplemented with 10% heat-inactivated fetal bovine serum (FBS, Sigma-Aldrich, St. Louis, MO), 1% penicillin and streptomycin. OKF6 cells were grown in Keratinocyte Serum-Free Medium (KSFM), supplemented with 10% heat-inactivated fetal bovine serum (FBS, Sigma-Aldrich, St. Louis, MO), 1% penicillin and streptomycin. H413 cells were grown in Dulbecco's Modified Eagle Medium/Ham's F-12 (DMEM/F12) supplemented with 10% heat-inactivated fetal bovine serum (FBS, Sigma-Aldrich, St. Louis, MO), 1% penicillin and streptomycin. Cells were cultured in tissue culture flasks (Corning, USA) and were kept in an incubator at 37°C in a humidified atmosphere with 5% CO2. For experimental purposes, cells in exponential growth phase (approximately 70–80% confluency) were used.
(§3) The influence of the solvents was determined by MTT assay (Mosmann, 1983). MCF-7, A375, HT29, HepG2, PC3, OKF6 and H413 cells were treated for 48 h. On the first day, 1.0 × 10^4 cells were seeded into a 96-well plate for 24 h incubation assay. The cells were incubated overnight at 37°C in 5% CO2. On the next day, the cells were treated with a two-fold dilution series of six concentrations of the solvents, and then incubated at 37°C in 5% CO2 for 48 h. MTT solution (4,5-dimethylthiazol-2-yl-2,5-diphenyltetrazoliumbromide) was added at 2 mg/mL, and after 2 h of incubation at 37°C in 5% CO2, DMSO was added to dissolve the formazan crystals. The plates were then read in Chameleon multitechnology microplate reader (Hidex, Turku, Finland) at 570 nm absorbance. The cell viability percentage after exposure to the solvents for 48 h was calculated by the previously described method. The ratio of the absorbance of treated cells to the absorbance of DMSO-treated control cells was determined as cell viability (percentage).
(Formazan colour is commonly taken as a measure of viable cells.)

The subject of data set [6] is human breast cancer cell line (MCF-7). The data set is described as follows: MTT cell viability assay, MCF-7. The class given is cell-based.
Excerpt: as §2, §3

The test system of data set [7] is human liver hepatocellular cell line (HepG2). The data set is described as follows: MTT cell viability assay, HepG2. The note with it: HepG2, 48 h treatment. The class given is cell-based.
Excerpt: as §2, §3

In data set [8] the test system is carcinoma-derived human oral keratinocyte cells (H413). The data set is described as follows: MTT cell viability assay, H413. The data set is classed as cell-based. The conditions noted are these: H413, 48 h treatment.
Excerpt: as §2, §3

The test system of data set [9] is human oral keratinocyte cell line (OKF6). As to the kind of experiment: MTT cell viability assay, OKF6. The class given is cell-based. The note with it: OKF6, 48 h treatment.
Excerpt: as §2, §3

Data set [10] concerns human malignant melanoma cell line (A375). The data set is described as follows: MTT cell viability assay, A375. The data set is classed as cell-based.
Excerpt: as §2, §3

Data set [11] concerns human colon adenocarcinoma cell line (HT29). The data set is described as follows: MTT cell viability assay, HT29. The data set is classed as cell-based.
Excerpt: as §2, §3

Data set [12] relates to HepG2. The conditions noted are these: on HepG2; cited from earlier work.

≈ marks a conversion by molar mass, not a printed value. Where two headings read alike, the source gives them in different places. Bounds are passed on as bounds.

Regarding 4-Hydroxy tamoxifen, the selectivity index result in data set [1] was “less than 2”.

As a reminder, the LD50 is the dose expected to kill half of the subjects tested. With `OCCO` [Pure EG, ethylene glycol], the LD50 in data set [2] is 9710 ± 1950 mg/kg.

On to `OCC(O)CO` [Pure Gl, glycerine], for which the LD50 at 14 days in data set [3] was found to be 20600 ± 2160 mg/kg.

With `OCCOCCOCCO` [Pure TEG, triethylene glycol], the LD50 at 14 days in data set [3] was 17000 ± 2040 mg/kg.

`NC(N)=O` [Pure U, urea]: in data set [2], the median lethal dose (LD50) is above 20000 mg/kg.

For the molecule `O=c1c(O)c(-c2ccc(O)c(O)c2)oc2cc(O)cc(O)c12` [Quercetin, quercetin dehydrate], the “net AUC” value in data set [4] (compounds at 100μg/mL) is listed as 6353346. Further, in data set [4] (trolox equivalent), the “mM of Trolox per 100μg/mL” value is given as 0.02141 mM of Trolox per 100μg/mL and the “μM of Trolox per 100μg/mL” value is 21.411 μM of Trolox per 100μg/mL.

As usually defined, the IC50 is the concentration at which inhibition is half-maximal. Regarding `C[N+](C)(C)CCO.[Cl-]` [Solvent 2, choline chloride], the IC50 in data set [5] was determined as 11.94 ± 1.35 µg/mL; in [6] (MCF-7, 48 h treatment) it was 8.95 ± 0.98 µg/mL; in data set [7] it was 14.26 ± 1.43 µg/mL; in [8] it was 19.61 ± 4.19 µg/mL; in [9], 26.53 ± 1.97 µg/mL; in [10] (A375, 48 h treatment) it was 7.584 ± 2.31 µg/mL. The IC50 in data set [11] (HT29, 48 h treatment) stood at 13.41 ± 1.73 µg/mL.

Take `OCC(O)CO` [Solvent 3, glycerine]: the IC50 in [5] amounted to 42.38 ± 3.96 µg/mL (≈ 460 µM); in data set [6] (MCF-7, 48 h treatment), 74.73 ± 6.67 µg/mL (≈ 811 µM); in [7], 68.85 ± 11.74 µg/mL (≈ 748 µM); in data set [8] it was 101.02 ± 18.54 µg/mL (≈ 1100 µM); in [9], 129.31 ± 8.23 µg/mL (≈ 1400 µM); in data set [10] (A375, 48 h treatment) it was 67.65 ± 6.83 µg/mL (≈ 735 µM). This molecule also had an IC50 in [11] (HT29, 48 h treatment) of 63.80 ± 7.23 µg/mL (≈ 693 µM).

For the molecule `C[N+](C)(C)CCO.[Cl-]` [Solvent 6, choline chloride], the IC50 in data set [5] was 13.60 ± 2.94 µg/mL; in data set [6] (MCF-7, 48 h treatment), 13.05 ± 2.09 µg/mL; in data set [7] it was 12.69 ± 1.63 µg/mL; in [8], 21.84 ± 2.65 µg/mL; in data set [9] it was 24.58 ± 2.81 µg/mL; in [10] (A375, 48 h treatment), 8.64 ± 1.75 µg/mL. The molecule further gave an IC50 in data set [11] (HT29, 48 h treatment) of 11.79 ± 0.43 µg/mL.

Regarding `OCCO` [Solvent 7, ethylene glycol], the IC50 in data set [5] was determined as 32.48 ± 1.06 µg/mL (≈ 523 µM); in data set [6] (MCF-7, 48 h treatment), 53.91 ± 6.17 µg/mL (≈ 869 µM); in data set [7] it was 44.33 ± 5.86 µg/mL (≈ 714 µM); in data set [8], 62.29 ± 8.94 µg/mL (≈ 1000 µM); in data set [9], 75.62 ± 6.33 µg/mL (≈ 1220 µM); in data set [10] (A375, 48 h treatment) it was 40.59 ± 5.27 µg/mL (≈ 654 µM). Besides, in data set [11] (HT29, 48 h treatment), the IC50 was 43.72 ± 3.97 µg/mL (≈ 704 µM).

Take `C[N+](C)(C)CCO.[Cl-]` [Solvent 10, choline chloride]: the IC50 amounted to 28.88 ± 2.64 µg/mL in data set [5]; 12.51 ± 0.71 µg/mL in data set [6] (MCF-7, 48 h treatment); 25.99 ± 1.85 µg/mL in data set [7]; 38.41 ± 4.03 µg/mL in [8]; 32.49 ± 3.41 µg/mL in data set [9]; 10.54 ± 0.34 µg/mL in data set [10] (A375, 48 h treatment). Also, in data set [11] (HT29, 48 h treatment), the IC50 stood at 18.75 ± 1.65 µg/mL.

On to `NC(N)=O` [Solvent 11, urea], for which the IC50 amounted to 23.09 ± 5.22 µg/mL (≈ 384 µM) in data set [5]; 24.23 ± 4.02 µg/mL (≈ 403 µM) in data set [7]; 20.22 ± 1.69 µg/mL (≈ 337 µM) in data set [8]; 28.22 ± 1.05 µg/mL (≈ 470 µM) in [9]; 11.21 ± 1.38 µg/mL (≈ 187 µM) in [10] (A375, 48 h treatment); 13.93 ± 2.16 µg/mL (≈ 232 µM) in data set [11] (HT29, 48 h treatment).

In the case of `C[N+](C)(C)CCO.[Cl-]` [Solvent 14, choline chloride], the IC50 is 10.18 ± 0.95 µg/mL in data set [5]; 12.23 ± 0.39 µg/mL in data set [6] (MCF-7, 48 h treatment); 14.60 ± 2.53 µg/mL in data set [7]; 21.49 ± 0.57 µg/mL in data set [8]; 21.74 ± 1.04 µg/mL in data set [9]; 12.75 ± 1.23 µg/mL in data set [10] (A375, 48 h treatment). The IC50 in [11] (HT29, 48 h treatment) is 8.939 ± 1.43 µg/mL.

As to `OCCOCCOCCO` [Solvent 15, triethylene glycol], the IC50 came out at 23.1 ± 1.32 µg/mL (≈ 154 µM) in data set [5] (Homo sapiens, read-out: IC50); 18.3 ± 2.15 µg/mL (≈ 122 µM) in [6] (Homo sapiens, MCF7, MCF-7, 48 h treatment, read-out: IC50); 33.9 ± 4.94 µg/mL (≈ 226 µM) in data set [7] (Homo sapiens, read-out: IC50); 32.1 ± 3.1 µg/mL (≈ 214 µM) in data set [8] (Homo sapiens, Keratinocyte, read-out: IC50); 29.8 ± 1.45 µg/mL (≈ 198 µM) in data set [9] (Homo sapiens, read-out: IC50); 14.6 ± 0.64 µg/mL (≈ 97.4 µM) in [10] (Homo sapiens, A-375, A375, 48 h treatment, read-out: IC50). For the same molecule, the IC50 in data set [11] (Homo sapiens, HT-29, HT29, 48 h treatment, read-out: IC50) is 20.2 ± 2.75 µg/mL (≈ 135 µM).

With `CCCCCCCCCC[N+](C)(C)CCCCCCCCCC` [[DDA][Sac], didecyldimethylammonium saccharinate], the IC50 in data set [12] is 4.8 µM.

`C[C@@]12CCC[C@]3(C)c4cc5c(O)ccc(O)c5cc4C(=O)[C@](O)(OC1)[C@H]23` [alisiaquinol]: in data set [1], the selectivity index result is listed as “less than 2”.

With `CC/C(=C(/CCN1CCCCC1)c1ccc(O)cc1)c1ccc(O)cc1` [piperidinyl-diethylstilbestrol], the selectivity index entry in data set [1] is reported as “less than 2”.
